Columns and labels:
A549 = assay: Cytotoxicity against human A549 cells after 24 hrs by MTT assay; assay type: functional, cell-based; conditions: A549, 24 h
MDA-MB-231 = assay: Cytotoxicity against human MDA-MB-231 cells after 24 hrs by MTT assay; assay type: functional, cell-based; conditions: MDA-MB-231, 24 h
A2780 = assay: Cytotoxicity against human A2780 cells after 24 hrs by MTT assay; assay type: functional, cell-based; conditions: A2780, 24 h
HeLa = assay: Cytotoxicity against human HeLa cells after 24 hrs by MTT assay; assay type: functional, cell-based
HT-29 = assay: Cytotoxicity against human HT-29 cells after 24 hrs by MTT assay; assay type: functional, cell-based; conditions: HT-29, 24 h
HUVEC = assay: Cytotoxicity against human HUVEC after 24 hrs by MTT assay; assay type: cell-based

Compound	IC50 (A549) [µM]	IC50 (MDA-MB-231) [µM]	IC50 (A2780) [µM]	IC50 (HeLa) [µM]	IC50 (HT-29) [µM]	IC50 (HUVEC) [µM]
C=C([C@H](C)O)[C@@H]1C[C@H]2[C@@](C)(CC[C@@]3(O)C(C)(C)CCC[C@]23C)O1	> 10	> 10	> 10	> 10	> 10	> 10
C=C([C@@H]1C[C@H]2[C@@](C)(CC[C@@]3(O)C(C)(C)CCC[C@]23C)O1)[C@@H](C)O	> 10	> 10	> 10	> 10	> 10	> 10
C=C([C@H](C)O)[C@@H]1C[C@H]2[C@@](C)(CC[C@@]3(O)C(C)(C)CCC(=O)[C@]23C)O1	> 10	> 10	> 10	> 10	> 10	> 10
C=C([C@@H]1C[C@H]2[C@@](C)(CC[C@@]3(O)C(C)(C)CCC(=O)[C@]23C)O1)[C@@H](C)O	> 10	> 10	> 10	> 10	> 10	> 10
C=C([C@H](C)O)[C@@H]1C[C@@H]2[C@@]3(C)[C@@H](O)CCC(C)(C)[C@]3(O)CC[C@@]2(C)O1	> 10	> 10	> 10	> 10	> 10	> 10
C=C([C@@H]1C[C@@H]2[C@@]3(C)[C@@H](O)CCC(C)(C)[C@]3(O)CC[C@@]2(C)O1)[C@@H](C)O	> 10	> 10	> 10	> 10	> 10	> 10
C=C(C(C)=O)[C@@H]1C[C@@H]2[C@@]3(C)[C@@H](O)CCC(C)(C)[C@]3(O)CC[C@@]2(C)O1	> 10	4.1	5.3	6.6	5.8	> 10
C=C(C(C)=O)[C@H]1C[C@@H]2[C@@]3(C)[C@@H](O)CCC(C)(C)[C@]3(O)CC[C@@]2(C)O1	> 10	5.4	4.4	5.5	7	> 10
C=C(C(C)=O)[C@@H]1C[C@H]2[C@@](C)(CC[C@@]3(O)C(C)(C)CCC(=O)[C@]23C)O1	> 10	5	7.8	8.7	6.8	> 10
C=C(C(C)=O)[C@@H]1C[C@H]2[C@@](C)(CC[C@@]3(O)C(C)(C)CCC[C@]23C)O1	> 10	4.2	8.6	8.3	5.2	3
C/C=C(\C)[C@@H]1C[C@H]2[C@@](C)(CC[C@@]3(O)C(C)(C)CCC[C@]23C)O1	> 10	> 10	> 10	> 10	> 10	> 10
C/C=C(\C)[C@@H]1C[C@H]2[C@@](C)(CC[C@@]3(O)C(C)(C)CCC(=O)[C@]23C)O1	> 10	> 10	> 10	> 10	> 10	> 10
C[C@H]1O[C@]1(C)C(=O)C[C@@H]1[C@@]2(C)[C@@H](O)CCC(C)(C)[C@]2(O)CC[C@@]1(C)O	> 10	> 10	> 10	> 10	> 10	> 10
C[C@@H]1O[C@@]1(C)C(=O)C[C@@H]1[C@@]2(C)[C@@H](O)CCC(C)(C)[C@]2(O)CC[C@@]1(C)O	> 10	> 10	> 10	> 10	> 10	> 10
C[C@@H]1O[C@@]1(C)C(=O)C[C@H]1[C@](C)(O)CC[C@@]2(O)C(C)(C)CCC[C@]12C	> 10	> 10	> 10	> 10	> 10	> 10
C[C@H]1O[C@]1(C)C(=O)C[C@H]1[C@](C)(O)CC[C@@]2(O)C(C)(C)CCC[C@]12C	> 10	> 10	> 10	> 10	> 10	> 10
CC1(C)CCC[C@]2(C)C3=CC(=O)O[C@]3(C)CC[C@@]12O	> 10	> 10	> 10	> 10	> 10	> 10
C/C=C(\C)C(=O)C[C@]1(O)[C@@]2(C)CCCC(C)(C)[C@]2(O)CC[C@@]1(C)O	> 10	> 10	> 10	> 10	> 10	> 10
C/C=C(\C)C(=O)C[C@@H]1[C@@]2(C)[C@@H](O)CCC(C)(C)[C@]2(O)CC[C@@]1(C)O	> 10	> 10	> 10	> 10	> 10	> 10
C/C=C(\C)C(=O)C[C@H]1[C@](C)(O)CC[C@@]2(O)C(C)(C)CCC[C@]12C	> 10	> 10	> 10	> 10	> 10	> 10
COc1cccc2c1C(=O)c1c(O)c3c(c(O)c1C2=O)C[C@@](O)(C(=O)CO)C[C@@H]3O[C@H]1C[C@H](N)[C@H](O)[C@H](C)O1 [DOXORUBICIN]	–	0.6	–	5.2	1.7	6.3

From ChEMBL document CHEMBL3600372, “Scapairrins A-Q, Labdane-Type Diterpenoids from the Chinese Liverwort Scapania irrigua and Their Cytotoxic Activity” (J Nat Prod, 2015)
